Key:
[1] = Differential scanning calorimetry of glass stability (onset temperature, fictive temperature, θK); type: physicochemical; details: for Tg (onset temperature) of ordinary glass: ordinary glass cooled from the liquid; for enthalpies and Tfic values of vapor-deposited samples relative to ordinary glass: samples prepared by vapor deposition
From the text: Differential scanning calorimetry (DSC) was used to examine the kinetics and thermodynamics of vapor-deposited samples created by heating crystalline TNB or IMC in a vacuum. To move a sample from the glass to the supercooled liquid, energy must be supplied to the sample. In DSC, this energy is supplied as heat to the system as the temperature is ramped from a temperature below the glass transition into the supercooled liquid regime. For an ordinary glass that is cooled from the melt the amount of energy needed to do this is observed by a change in heat capacity at Tg. […] An endothermic heat characteristic will be observed in these cases, often referred to as an enthalpy overshoot, where the size and temperature of the overshoot indicate the amount of stability.
This scan was continued to above the melting point, after which the sample was cooled at 40 K/min into the glass and then scanned again to yield the leftmost curve. This latter-curve represents the behavior of an ordinary glass of TNB, with Tg=347 K, as defined by the onset temperature; it is consistent with previously reported results for TNB (C. M. Whitaker, R. J. McMahon J. Phys. Chem. 100, 1081 (1996); J. H. Magill, J. Chem. Phys. 47, 2802 (1967)). The DSC instrument was calibrated using an indium standard.
The fictive-temperature (Tfic) of the glasses, as defined below, was calculated in order to quantify the thermodynamic stability of the vapor-deposited materials. Lower Tfic values indicate a lower position on the energy landscape. The enthalpy for TNB and IMC samples, obtained by integrating Cp, is plotted in FIG. 1B. […] The supercooled liquid enthalpy curve was calculated by determining the temperature dependence of the enthalpy between the glass transition and the melting point and extrapolating this dependence to lower temperatures. […] Based upon aging experiments on TNB (D. J. Plazek, J. H. Magill, J. Chem. Phys. 45, 3038 (1966)), it is estimated that it would require at least 40 years of annealing an ordinary glass to match Tfic for the vapor-deposited sample shown in FIG. 1.
The Kauzmann temperature and θK were also calculated. For TNB, Magill estimated TK=270 K (J. H. Magill, J. Chem. Phys. 47, 2802 (1967)). […] In comparison, annealing the ordinary glass at 296 K (θK=0.09) or 328 K (θK=0.22) is relatively ineffective. […] Of annealing achieved θK≦0.17 (A. J. Kovacs, Fortschr Hochpolym-Forsch. 3, 394 (1963)).

[2] = Density of vapor-deposited films by x-ray reflectivity; type: physicochemical; details: deposition at 296 K
From the text: The present vapor-deposition methods can also create unusually dense glasses. The ratio of the density of vapor-deposited TNB (ρVD) to that of the ordinary glass (ρo, prepared by cooling from the liquid), increases as the deposition temperature is lowered toward 0.85 Tg (FIG. 2). Also shown as the solid line is a prediction of the density if vapor-deposition produced an equilibrium supercooled liquid at the deposition temperature (D. J. Plazek, J. H. Magill, J. Chem. Phys. 45, 3038 (1966)). For this range of deposition temperatures, the samples nearly achieve this upper bound for density. If a fictive temperature is defined based upon density, deposition at 296 K produces Tfic≈300 K, slightly lower than the fictive temperature based upon the enthalpy. Fictive temperatures based on densities can be determined from FIG. 2, by horizontally shifting the points to overlap with the line shown.
The data in FIG. 2 were determined from x-ray reflectivity measurements made on as-prepared films of TNB and on the same films after thermal equilibration above Tg. All x-ray data was taken at room temperature. […] Since the area of the film was the same before and after annealing, the ratio of the densities equals the inverse of the ratio of the thicknesses, and this is reported in FIG. 2. […]

[3] = Neutron reflectivity of interdiffusion in h-TNB/d-TNB multilayer films during annealing; type: physicochemical
Experimental: Neutron reflectivity was used to characterize diffusion in ordinary and stable glasses of TNB. The high spatial resolution and large contrast in the scattering length of neutrons for hydrogen and deuterium nuclei make this an excellent technique for quantifying molecular motion. The neutron reflectivity experiments were conducted at the NIST Center for Neutron Research at the National Institute of Standards and Technology (NCNR-NIST). The NG7 horizontal reflectometer utilized a 4.76 Å collimated neutron beam, with a wavelength divergence of 0.18 Å. The angular divergence of the beam was varied through the reflectivity scan and this provided a relative q resolution Δq/q=0.04 (q=4π sin θ/λ, where θ is the incident and final angle with respect to the surface of the film, and where λ is the neutron wavelength).
For the neutron reflectivity measurements, multilayer thin films of protio TNB (h-TNB) and deuterio TNB (d-TNB) were deposited onto 76-mm-diameter, 3-mm-thick silicon-wafers (Wafer World and Virginia Semiconductor), as described in S. F. Swallen, et al., J. Chem. Phys. 124, 184501 (2006). The silicon was used as received, retaining the native oxide coating. The deposition rate was typically 0.1 nm/s. Prior to deposition, the substrate was spin-coated with a 10-nm polystyrene layer (Polymer Source, ˜10^6 g/mol), which acted to minimize crystallization and dewetting of the TNB film during annealing. The polystyrene was made from a mixture of protio and perdeuterio chains, in order, to approximately match the neutron scattering length density of the first h-TNB layer. Following deposition, the samples were slowly cooled and held at room temperature for 1 to 5 days before neutron reflectivity measurements were obtained. The specular reflectivity R was measured as a function of beam angle relative to the sample surface. This value, multiplied by q^4 for clarity, is plotted as a function of the wavevector q. Reflectivity curves for samples vapor-deposited at different temperatures display diffraction peaks; as expected for the symmetric multi-layer samples, only odd diffraction orders are, present. For samples deposited at low temperature, diffraction can be observed up to the 13th order, indicating very sharp h-TNB/d-TNB interfaces. (S. F. Swallen et al; Science 315, 353 (2.007)). […]
FIG. 4A illustrates the behavior of an ordinary glass annealed near Tg; as shown elsewhere (S. F. Swallen et al., J. Chem. Phys. 124, 184501 (2006)), interdiffusion in this sample is characteristic of the equilibrium liquid. […] The magnitude of this stability can be quantified in terms of the equilibrium structural relaxation time τα, known to be 250 s at 342 K (R. Richert, K. Duvvuri, L.-T. Duong, J. Chem. Phys. 118, 1828 (2003)). […]

[4] = estimated by Magill; cited from earlier work
[5] = at 342 K; cited from earlier work
[6] = Water uptake: weight change as a function of relative humidity (sorption apparatus); type: physicochemical
Experimental: The stable glass was prepared by vapor depositing IMC onto an aluminum substrate using the method described in Example 1, above. The substrate was held at a temperature of 265 K and a deposition rate of 2 Å/s was used. For comparison, two “ordinary” glass samples were also prepared. These were formed by vapor-deposition at 315 K. In addition, water uptake was measured for a crystalline IMC glass. Weight change as a function of relative humidity was measured for the ordinary glasses, stable glass, and crystalline IMC. The multiple curves for a given sample are from cycles where the relative humidity (RH) was stepped up and back down. A TA instruments Q5000SA sorption apparatus was used to induce relative humidity step changes and measure the steady-state weight change response. For the crystalline IMC (lowest curve), at 50% RH less than 0.1% weight change was observed. By contrast: the ordinary glass (uppermost curves) absorbed nearly one weight percent at a RH of 50%. The measured percent weight change observed here matches previous data obtained for ordinary IMC glasses and crystalline IMC by Zografi and coworkers. (See Andronis et al., J. Pharm. Sci. 86, 346 (1997).)

[7] = Quasi-isothermal temperature modulated DSC: transformation of glass to supercooled liquid; type: physicochemical; details: ordinary glass; Tanneal 319 K
Experimental: The stable glass was prepared by vapor depositing IMC onto an aluminum substrate using the method described in Example 1, above. The substrate was held at a temperature of 265 K and a deposition rate of 2 Å/s was used. For comparison, an “ordinary” glass sample was also prepared by melting the vapor-deposited IMC glass and cooling the resulting liquid at a rate of 40 K/min.
The kinetic stability of the stable IMC glass was explored in quasi-isothermal temperature modulated differential scanning calorimetry (qi-TMDSC) experiments. In these experiments a TA instruments Q2000 DSC was used. After vapor deposition, the samples were placed in the DSC at room temperature. A temperature jump from room temperature to the annealing-temperature was carried out. At room temperature the sample was a glass, and the annealing temperature was chosen such that it was higher than the ordinary glass Tg (315 K). The temperature jump defines t=0. In addition to the instantaneous temperature jump a small sinusoidal temperature fluctuation was imposed (amplitude: 0.5: K, period: 60 seconds) which allows; one to measure the reversing heat capacity as a function of time.

[8] = DSC of glasses made in a sublimation apparatus; details: vapor deposition by sublimation, 8 mTorr
From the text: A glass container that could be evacuated was used as a sublimation chamber. The lower part of the container held the material to be sublimed (“source material”). A condenser cooled by a circulating coolant was positioned above the source material. At the bottom of the condenser were attached a silicon wafer or aluminum DSC pans, which serves as surfaces for vapor deposition. The source material was heated to sublime by submerging the bottom the sublimation apparatus in an oil bath. The vapor produced by sublimation was deposited on the cooled collecting surfaces. The vacuum maintained during the operation of this device was 8 mTorr. A metal plate was placed over the source material until vapor deposition was to begin, at which time it was withdrawn magnetically. The sublimation rate was controlled by varying the oil bath temperature.
Curve 1 corresponds to a glass prepared by vapor deposition onto a DSC pan held, at approximately Tg−50 K at a rate of ˜0.2 nm/s. Curve 2 corresponds to an ordinary glass, produced by cooling the liquid at a rate of 10 K/min. […] Curve 1 corresponds to a glass prepared by vapor deposition onto a DSC pan at approximately Tg−50 K at a rate of ˜0.4 nm is. […] Curve 2 corresponds to an ordinary glass produced by cooling the liquid at 10 K/min.

SMILES	annealing time of an ordinary glass required to match Tfic of the vapor-deposited sample ([1]; estimated from aging experiments)	onset temperature ([1]; glass vapor-deposited onto substrate at 296 K, DSC heating 10 K/min)	θK ([1]; ordinary glass annealed at 296 K)	θK ([1]; ordinary glass annealed at 328 K)	Tg (onset temperature) of ordinary glass [1]	enthalpies and Tfic values of vapor-deposited samples relative to ordinary glass [1]	θK ([1]; vapor deposition at 296 K (0.85Tg))	Tfic (fictive temperature based upon density) [2]	interdiffusion of h-TNB/d-TNB during annealing ([3]; deposited at 296 K, 16 hours of annealing at 342 K)	interdiffusion of h-TNB/d-TNB during annealing ([3]; deposited at 330 K, 8 hours of annealing at 342 K)	induction time before diffusion ([3]; sample deposited at 0.85Tg, annealed at 342 K)	surface diffusion coefficient ([3]; vapor-deposited at 296 K, 0.1 nm/sec, order-of-magnitude estimate)	Kauzmann temperature TK [4]	equilibrium structural relaxation time τα [5]	weight change (water uptake) ([6]; crystalline, 50% RH)	weight change (water uptake) ([6]; ordinary glass (vapor-deposited at 315 K), RH of 50%)	water uptake of stable glass relative to ordinary glass ([6]; relative humidity of 50%)	weight change (water uptake) ([6]; stable glass (vapor-deposited at 265 K, 2 Å/s), relative humidity of 50%)	response to temperature jump (transformation to supercooled liquid) [7]	stability of glass made in sublimation apparatus [8]
c1ccc2cc(-c3cc(-c4cccc5ccccc45)cc(-c4cccc5ccccc45)c3)ccc2c1 [TNB, 1,3-bis-(1-naphthyl)-5-(2-naphthyl)benzene]	at least 40 years	363 K	0.09	0.22	347 K	considerably lower	0.43	≈ 300 K	no detectable interdiffusion occurred	substantial interfacial broadening had occurred	exceeds 200 τα	5×10^−16 cm^2/sec	270 K	250 s						
COc1ccc2c(c1)c(CC(=O)O)c(C)n2C(=O)c1ccc(Cl)cc1 [IMC, indomethacin]					315 K	considerably lower									less than 0.1%	one	one sixth	0.15 weight percent	nearly instantaneous	
CCC1(c2ccccc2)C(=O)NC(=O)NC1=O [phenobarbital]																				low fictive temperatures

Source: patent publication US8329218B2, “Unusually stable glasses and methods for forming same” (Wisconsin Alumni Research Foundation, priority 2007, dated 2012)
